Data on 14 substances can be found in the OligoGym collection.

HELM strings list units from the 5' end as sugar, base in round brackets, then linkage (d deoxyribose, r ribose, m 2'-O-methyl, p phosphodiester). Strings are as the collection lists them, not checked against the first reports. ss, as = sense and antisense strand; [hna] = hexitol nucleic acid; [s4r] = 4'-thioribose; [fl2r] = 2'-fluoro
Note: test system not given here.

The conditions of the data set: siRNA.
In turn, “RNA1{r(U)p.r(U)p.m(U)p.r(G)p.r(A)p.r(U)p.m(C)p.r(A)p.r(G)p.r(C)p.r(G)p.r(G)p.r(A)p.r(G)p.r(A)p.r(C)p.r(U)p.r(C)p.r(G)p.r(T)p.r(T)}|RNA2{r(C)p.r(G)p.r(A)p.r(G)p.r(U)p.r(C)p.r(U)p.r(C)p.r(C)p.r(G)p.r(C)p.m(U)p.r(G)p.r(A)p.r(U)p.m(C)p.r(A)p.r(A)p.r(A)p.r(T)p.r(T)}$$$RNA1{StrandType:ss}|RNA2{StrandType:as}$” yielded a target mRNA knockdown of 89%.
Take “RNA1{r(A)p.[fl2r](C)p.r(A)p.[fl2r](U)p.r(A)p.[fl2r](G)p.r(A)p.r(G)p.r(G)p.r(A)p.r(A)p.r(G)p.r(A)p.r(C)p.r(G)p.r(C)p.r(G)p.r(G)p.r(A)p.r(T)p.r(T)}|RNA2{r(U)p.r(C)p.r(C)p.r(G)p.r(C)p.r(G)p.r(U)p.r(C)p.r(U)p.r(U)p.r(C)p.r(C)p.r(U)p.r(C)p.[fl2r](U)p.r(A)p.[fl2r](U)p.r(G)p.r(U)p.r(T)p.r(T)}$$$RNA1{StrandType:ss}|RNA2{StrandType:as}$”: the target mRNA knockdown turned out to be 86%.
As to “RNA1{m(G)p.r(G)p.m(G)p.r(G)p.m(C)p.r(U)p.m(C)p.r(U)p.m(U)p.r(C)p.m(U)p.r(A)p.m(C)p.r(A)p.m(U)p.r(U)p.m(C)p.r(C)p.m(C)p.r(T)p.r(T)}|RNA2{r(G)p.r(G)p.r(G)p.r(A)p.r(A)p.r(U)p.r(G)p.r(U)p.r(A)p.r(G)p.r(A)p.r(A)p.r(G)p.r(A)p.r(G)p.r(C)p.r(C)p.r(C)p.r(C)p.r(T)p.r(T)}$$$RNA1{StrandType:ss}|RNA2{StrandType:as}$”, the target mRNA knockdown was found to be 51%.
In turn, “RNA1{r(A)p.r(U)p.m(C)p.r(A)p.m(C)p.r(A)p.r(A)p.r(A)p.r(C)p.r(C)p.r(C)p.r(C)p.r(U)p.r(A)p.r(G)p.r(A)p.r(G)p.r(G)p.r(G)p.r(T)p.r(T)}|RNA2{r(C)p.r(C)p.r(C)p.r(U)p.r(C)p.m(U)p.r(A)p.r(G)p.r(G)p.r(G)p.r(G)p.r(U)p.r(U)p.r(U)p.r(G)p.m(U)p.r(G)p.r(A)p.r(U)p.r(T)p.r(T)}$$$RNA1{StrandType:ss}|RNA2{StrandType:as}$” showed a target mRNA knockdown of 75%.
In the case of “RNA1{[fl2r](C)p.r(U)p.[fl2r](A)p.r(G)p.[fl2r](A)p.r(G)p.[fl2r](G)p.r(A)p.[fl2r](U)p.r(C)p.[fl2r](U)p.r(U)p.[fl2r](G)p.r(A)p.[fl2r](A)p.r(G)p.[fl2r](A)p.r(C)p.[fl2r](C)p.r(T)p.r(T)}|RNA2{[fl2r](G)p.[fl2r](G)p.r(U)p.r(C)p.r(U)p.r(U)p.r(C)p.r(A)p.r(A)p.[fl2r](G)p.r(A)p.r(U)p.r(C)p.r(C)p.r(U)p.r(C)p.r(U)p.r(A)p.[fl2r](G)p.r(T)p.r(T)}$$$RNA1{StrandType:ss}|RNA2{StrandType:as}$”, the target mRNA knockdown was determined as 38%.
Regarding “RNA1{r(A)p.r(U)p.m(C)p.r(A)p.m(C)p.r(A)p.r(A)p.r(A)p.r(C)p.r(C)p.r(C)p.r(C)p.m(U)p.r(A)p.r(G)p.r(A)p.r(G)p.r(G)p.r(G)p.r(T)p.r(T)}|RNA2{r(C)p.r(C)p.r(C)p.r(U)p.r(C)p.m(U)p.r(A)p.r(G)p.r(G)p.r(G)p.r(G)p.r(U)p.r(U)p.m(U)p.r(G)p.m(U)p.r(G)p.r(A)p.r(U)p.r(T)p.r(T)}$$$RNA1{StrandType:ss}|RNA2{StrandType:as}$”, the target mRNA knockdown came out at 75%.
For “RNA1{[hna](G)p.[hna](A)p.[hna](C)p.r(G)p.r(U)p.r(A)p.r(A)p.r(A)p.r(C)p.r(G)p.r(G)p.r(C)p.r(C)p.r(A)p.r(C)p.r(A)p.r(A)p.[hna](G)p.[hna](U)p.[hna](U)p.d(T)}|RNA2{r(A)p.[hna](C)p.r(U)p.r(U)p.r(G)p.r(U)p.r(G)p.r(G)p.r(C)p.r(C)p.r(G)p.r(U)p.r(U)p.r(U)p.r(A)p.r(C)p.r(G)p.[hna](U)p.[hna](C)p.[hna](G)p.d(T)}$$$RNA1{StrandType:ss}|RNA2{StrandType:as}$” the value was 77.4%; for “RNA1{r(G)p.r(A)p.r(U)p.r(A)p.r(G)p.r(G)p.r(A)p.r(A)p.r(G)p.r(G)p.r(G)p.r(G)p.r(C)p.r(U)p.r(U)p.r(C)p.r(A)p.r(G)p.r(C)p.r(T)p.r(T)}|RNA2{r(G)p.m(C)p.m(U)p.r(G)p.r(A)p.r(A)p.r(G)p.m(C)p.m(C)p.m(C)p.m(C)p.m(U)p.m(U)p.m(C)p.m(C)p.m(U)p.r(A)p.m(U)p.m(C)p.r(T)p.r(T)}$$$RNA1{StrandType:ss}|RNA2{StrandType:as}$”, 12%; for “RNA1{r(A)p.r(A)p.r(C)p.r(U)p.r(C)p.m(U)p.r(A)p.r(C)p.r(U)p.r(G)p.r(U)p.r(G)p.r(G)p.r(A)p.r(G)p.r(U)p.r(C)p.r(G)p.r(G)p.r(T)p.r(T)}|RNA2{r(C)p.r(C)p.r(G)p.r(A)p.r(C)p.r(U)p.r(C)p.r(C)p.r(A)p.r(C)p.r(A)p.r(G)p.m(U)p.r(A)p.r(G)p.r(A)p.r(G)p.r(U)p.r(U)p.r(T)p.r(T)}$$$RNA1{StrandType:ss}|RNA2{StrandType:as}$”, 69%.
The figure for “RNA1{[s4r](C)p.[s4r](G)p.[s4r](U)p.[s4r](A)p.r(C)p.r(G)p.r(C)p.r(G)p.r(G)p.r(A)p.r(A)p.r(U)p.r(A)p.r(C)p.r(U)p.[s4r](U)p.[s4r](C)p.[s4r](G)p.[s4r](A)p.r(T)p.r(T)}|RNA2{[s4r](U)p.[s4r](C)p.r(G)p.r(A)p.r(A)p.r(G)p.r(U)p.r(A)p.r(U)p.r(U)p.r(C)p.r(C)p.r(G)p.r(C)p.r(G)p.r(U)p.r(A)p.[s4r](C)p.[s4r](G)p.r(T)p.r(T)}$$$RNA1{StrandType:ss}|RNA2{StrandType:as}$” is 87.7%; for “RNA1{r(U)p.r(C)p.m(U)p.r(A)p.r(C)p.r(A)p.r(C)p.r(C)p.r(G)p.r(C)p.r(G)p.r(C)p.r(C)p.r(C)p.r(C)p.r(C)p.r(C)p.r(U)p.r(C)p.r(T)p.r(T)}|RNA2{r(G)p.r(A)p.r(G)p.r(G)p.r(G)p.r(G)p.r(G)p.r(G)p.r(C)p.r(G)p.r(C)p.r(G)p.r(G)p.r(U)p.r(G)p.m(U)p.r(A)p.r(G)p.r(A)p.r(T)p.r(T)}$$$RNA1{StrandType:ss}|RNA2{StrandType:as}$” it is 79%.
Consider “RNA1{r(C)p.r(U)p.r(C)p.r(C)p.r(G)p.r(A)p.r(C)p.r(A)p.r(G)p.r(A)p.m(U)p.r(G)p.r(A)p.r(A)p.r(G)p.r(G)p.r(A)p.r(A)p.r(A)p.r(T)p.r(T)}|RNA2{r(U)p.r(U)p.r(U)p.r(C)p.r(C)p.r(U)p.r(U)p.r(C)p.r(A)p.r(U)p.r(C)p.m(U)p.r(G)p.r(U)p.r(C)p.r(G)p.r(G)p.r(A)p.r(G)p.r(T)p.r(T)}$$$RNA1{StrandType:ss}|RNA2{StrandType:as}$”, for which the target mRNA knockdown turned out to be 72%.
“RNA1{[s4r](A)p.[s4r](A)p.[s4r](A)p.[s4r](C)p.r(A)p.r(U)p.r(G)p.r(C)p.r(A)p.r(G)p.r(A)p.r(A)p.r(A)p.r(A)p.r(U)p.[s4r](G)p.[s4r](C)p.[s4r](U)p.[s4r](G)p.r(T)p.r(T)}|RNA2{r(C)p.r(A)p.r(G)p.r(C)p.r(A)p.r(U)p.r(U)p.r(U)p.r(U)p.r(C)p.r(U)p.r(G)p.r(C)p.r(A)p.r(U)p.r(G)p.r(U)p.[s4r](U)p.[s4r](U)p.r(T)p.r(T)}$$$RNA1{StrandType:ss}|RNA2{StrandType:as}$” came in with a target mRNA knockdown of 85.5%.
“RNA1{r(C)p.r(G)p.r(G)p.r(A)p.r(U)p.r(C)p.m(U)p.r(A)p.r(C)p.r(A)p.r(C)p.r(C)p.r(U)p.r(U)p.r(C)p.m(A)p.r(A)p.r(G)p.r(A)p.r(T)p.r(T)}|RNA2{r(U)p.r(C)p.r(U)p.m(U)p.r(G)p.r(A)p.r(A)p.r(G)p.r(G)p.m(U)p.r(G)p.m(U)p.r(A)p.r(G)p.r(A)p.r(U)p.r(C)p.r(C)p.r(G)p.r(T)p.r(T)}$$$RNA1{StrandType:ss}|RNA2{StrandType:as}$”: the target mRNA knockdown was found to be 42%.
